{"source": "patent US10799501B2", "about": "“Combination of an inhibitor of PARP with an inhibitor of GSK-3 or DOT1L” (King's College London, priority 2015, dated 2020)", "key": {"[1]": {"test_system": "AML1-ETO transformed cells", "assay": "In vitro drug treatment of primary murine hematopoietic cells transformed by AML1-ETO (RTTA)", "type": "cell-based, mouse", "method": "Transduction using concentrated viral supernatant expressing the oncogene of interest was carried out by centrifugation (spinoculation) at 800 g at 32° C. for 2 hours in the presence of 5 μg ml^-1 polybrene (Sigma-Aldrich). Cells were subsequently plated in 1% methylcellulose medium ([…]; Stem Cell Technologies) containing 20 ngml^-1 SCF, 10 ngml^-1 IL-3, 10 ngml^-1 IL-6 and 10 ngml^-1 granulocyte macrophage colony-stimulating factor (GM-CSF) and appropriate selection antibiotic. Colonies were counted after 7 days of culture and replated every 6-7 days at 5×103-1.5×10^4 cell density. Re-plating was performed weekly to generate primary cell lines for further analysis. After the third or fourth round of plating, cells were cultured in R20/20 medium (RPMI 1640, 20% FCS, 20% WEHI-conditioned medium, 2 mM L-glutamine, 100 U/ml penicillin, and 100 μg/ml streptomycin) supplemented with 20 ngml^-1 stem cell factor (SCF), 10 ngml^-1 interleukin (IL)-3, and 10 ngml^-1 IL-6 to establish cell lines. All recombinant murine cytokines were from PeprotechEC. […] Colonies were scored 6-7 days after plating. For other in vitro studies, mouse leukemic cells and primary AML cell lines were subjected to continuously Olaparib (1 μM) or LiCl (8 mM) treatment in liquid culture for whole duration as indicated in the figures or figure legends. For human leukemic cell lines, experiments were performed as described above with 5 μM Olaparib. Cells were cytospun onto a glass slide at 400 g for 5 minutes and then fixed for 10 minutes with 2% formaldehyde/0.2% glutaraldehyde (Sigma Aldrich). Cells were then washed with PBS, and then incubated at 37° C. for at least 2 hours with a staining solution (30 mM Citric Acid/Phosphate buffer, 5 mM K4Fe(CN)6, 5 mM K3Fe(CN)6, 150 mM NaCl, 2 mM MgCl2, 1 mg/ml X-Gal) (All reagents from Sigma-Aldrich)62. Cells were counted in at least 5 fields for each slide, for a total of over 100 cells. The percentage of senescent cells was calculated by the percentage of the number of blue cell in the field. Cells were cytospun onto a glass slide at 400 g for 5 minutes and then fixed for 30 minutes in 4% PFA and permeabilized and blocked in 0.8% Tx-100, 10% FBS/1% BSA (Sigma-Aldrich) in PBS for 15 min at room temperature. Mouse anti mouse γH2AX ([…]) (Upstate clone JBW301#05-636) and rabbit anti mouse RAD51 (Santa Cruz Biotecnology […]# sc-8349) were diluted in TBS containing 10% FBS/1% BSA and incubated overnight at 4C. […] Slides were then washed five times at 10 min each with PBS. Slides were briefly washed in water and air-dried prior to mounting with Mowiol-DABCO and a coverslip. Cells were counted in at least 5 fields for each slide, for a total of over 100 cells per condition. 1×10^5 cells were cytospun for 5 min at 300 g onto glass slides. Slides were then stained with May-Grunwald solution (Sigma-Aldrich) for 3 min at room temperature. After washing in water, they were incubated for 20 min in Giemsa solution (Sigma-Aldrich) (1:20 in water). Slides were washed again in water before being mounted with Mowiol. Cells were counted in at least 5 fields for each slide, for a total of over 100 cells per condition. NBT reduction assay were performed to determine myeloid differentiation. […] Cells were then washed in PBS and the differentiated cells were indicated by the deposition of dark blue insoluble formazan (NBT positive cells) and the percentage of differentiated cells were counted under microscopy. At least 200 cells were counted in most of the cases."}, "[2]": {"test_system": "MLL-AF9 Hoxa9−/− transformed cells", "assay": "In vitro PARPi treatment of MLL-AF9 transformed cells from Hoxa9−/− background", "type": "cell-based, mouse", "method": "Transduction using concentrated viral supernatant expressing the oncogene of interest was carried out by centrifugation (spinoculation) at 800 g at 32° C. for 2 hours in the presence of 5 μg ml^-1 polybrene (Sigma-Aldrich). Cells were subsequently plated in 1% methylcellulose medium ([…]; Stem Cell Technologies) containing 20 ngml^-1 SCF, 10 ngml^-1 IL-3, 10 ngml^-1 IL-6 and 10 ngml^-1 granulocyte macrophage colony-stimulating factor (GM-CSF) and appropriate selection antibiotic. Colonies were counted after 7 days of culture and replated every 6-7 days at 5×103-1.5×10^4 cell density. Re-plating was performed weekly to generate primary cell lines for further analysis. After the third or fourth round of plating, cells were cultured in R20/20 medium (RPMI 1640, 20% FCS, 20% WEHI-conditioned medium, 2 mM L-glutamine, 100 U/ml penicillin, and 100 μg/ml streptomycin) supplemented with 20 ngml^-1 stem cell factor (SCF), 10 ngml^-1 interleukin (IL)-3, and 10 ngml^-1 IL-6 to establish cell lines. All recombinant murine cytokines were from PeprotechEC. […] Colonies were scored 6-7 days after plating. […] Cells were counted in at least 5 fields for each slide, for a total of over 100 cells. The percentage of senescent cells was calculated by the percentage of the number of blue cell in the field."}, "[3]": {"test_system": "ovarian cancer", "details": "untargeted population; cited from earlier work"}, "[4]": {"test_system": "MLL-AF9 transformed cells", "assay": "In vitro drug treatment of primary murine hematopoietic cells transformed by MLL-AF9 (RTTA)", "type": "cell-based, mouse", "method": "Transduction using concentrated viral supernatant expressing the oncogene of interest was carried out by centrifugation (spinoculation) at 800 g at 32° C. for 2 hours in the presence of 5 μg ml^-1 polybrene (Sigma-Aldrich). Cells were subsequently plated in 1% methylcellulose medium ([…]; Stem Cell Technologies) containing 20 ngml^-1 SCF, 10 ngml^-1 IL-3, 10 ngml^-1 IL-6 and 10 ngml^-1 granulocyte macrophage colony-stimulating factor (GM-CSF) and appropriate selection antibiotic. Colonies were counted after 7 days of culture and replated every 6-7 days at 5×103-1.5×10^4 cell density. Re-plating was performed weekly to generate primary cell lines for further analysis. After the third or fourth round of plating, cells were cultured in R20/20 medium (RPMI 1640, 20% FCS, 20% WEHI-conditioned medium, 2 mM L-glutamine, 100 U/ml penicillin, and 100 μg/ml streptomycin) supplemented with 20 ngml^-1 stem cell factor (SCF), 10 ngml^-1 interleukin (IL)-3, and 10 ngml^-1 IL-6 to establish cell lines. All recombinant murine cytokines were from PeprotechEC. […] Colonies were scored 6-7 days after plating. For other in vitro studies, mouse leukemic cells and primary AML cell lines were subjected to continuously Olaparib (1 μM) or LiCl (8 mM) treatment in liquid culture for whole duration as indicated in the figures or figure legends. For human leukemic cell lines, experiments were performed as described above with 5 μM Olaparib. Cells were cytospun onto a glass slide at 400 g for 5 minutes and then fixed for 10 minutes with 2% formaldehyde/0.2% glutaraldehyde (Sigma Aldrich). Cells were then washed with PBS, and then incubated at 37° C. for at least 2 hours with a staining solution (30 mM Citric Acid/Phosphate buffer, 5 mM K4Fe(CN)6, 5 mM K3Fe(CN)6, 150 mM NaCl, 2 mM MgCl2, 1 mg/ml X-Gal) (All reagents from Sigma-Aldrich)62. Cells were counted in at least 5 fields for each slide, for a total of over 100 cells. The percentage of senescent cells was calculated by the percentage of the number of blue cell in the field. Cells were cytospun onto a glass slide at 400 g for 5 minutes and then fixed for 30 minutes in 4% PFA and permeabilized and blocked in 0.8% Tx-100, 10% FBS/1% BSA (Sigma-Aldrich) in PBS for 15 min at room temperature. […] Cells were counted in at least 5 fields for each slide, for a total of over 100 cells per condition. […] Cells were counted in at least 5 fields for each slide, for a total of over 100 cells per condition. […] Cells were then washed in PBS and the differentiated cells were indicated by the deposition of dark blue insoluble formazan (NBT positive cells) and the percentage of differentiated cells were counted under microscopy. At least 200 cells were counted in most of the cases."}, "[5]": {"test_system": "normal mouse bone marrow c-Kit+ cells", "assay": "Dose-response titration on normal bone marrow cells in methylcellulose", "type": "cell-based", "details": "undetectable/minimal effects on normal primary bone marrow cells", "method": "Colonies were scored 6-7 days after plating. For other in vitro studies, mouse leukemic cells and primary AML cell lines were subjected to continuously Olaparib (1 μM) or LiCl (8 mM) treatment in liquid culture for whole duration as indicated in the figures or figure legends. For human leukemic cell lines, experiments were performed as described above with 5 μM Olaparib."}}, "data": [{"smiles": "O=C(c1cc(Cc2n[nH]c(=O)c3ccccc23)ccc1F)N1CCN(C(=O)C2CC2)CC1", "note": "[Olaparib, 4-[(3-[(4-cyclopropylcarbonyl)piperazin-4-yl]carbonyl)-4-fluorophenyl]methyl(2H)-phthalazin-1-one]", "values": [{"measurement": "suppression of colony forming ability", "setting": "[1]; 1 uM Olaparib, methylcellulose 7 days, p<0.001", "value": "about 90%"}, {"measurement": "senescence (β-galactosidase staining)", "setting": "[1]; PARPi 24 hrs and 48 hrs", "value": "underwent significant senescence"}, {"measurement": "Rad51 recruitment to DNA damage sites (RAD51 foci)", "setting": "[1]; PARPi treatment for 6 hours", "value": "no significant Rad51 recruitment"}, {"measurement": "percentage of differentiation (morphology and NBT reduction)", "setting": "[1]; time course PARPi treatment", "value": "significantly increased the percentage of differentiation"}, {"measurement": "cells with γH2AX and Rad51 foci ratio greater than 2", "setting": "[1]; upon PARPi treatment", "value": "around 80%"}, {"measurement": "senescence (β-galactosidase staining)", "setting": "[2]; 48 hrs PARPi treatment", "value": "induction of senescence"}, {"measurement": "colony forming ability and differentiation", "setting": "[2]; seven days in methylcellulose with PARPi", "value": "significant suppression of colony forming ability and differentiation"}, {"measurement": "overall survival benefit compared to chemotherapy", "setting": "[3]", "value": "failed to show overall survival benefit"}, {"measurement": "impact on colony forming ability", "setting": "[4]; 1 uM Olaparib, methylcellulose 7 days", "value": "little impact"}, {"measurement": "differentiation, G1 arrest, senescence, apoptosis effects", "setting": "[4]; PARPi treatment", "value": "none of these effects were observed"}, {"measurement": "Rad51 recruitment to DNA damage sites (RAD51 foci)", "setting": "[4]; PARPi treatment for 6 hours", "value": "able to form RAD51 foci"}, {"measurement": "in vitro maximal tolerable dose", "setting": "[5]", "value": "up to 1 uM"}]}]}
